Test results taken from patent US20230233569A1 (Revolution Medicines, Inc., priority 2020, published 2023).
Read-outs that look alike come from different tables or passages of the source.

How the values were obtained:
Assay in all cases: Ras-Raf disruption / FRET / MOA assay (BRAF RBD)
Format in all cases: biochemical
KRAS G12C = KRAS G12C (Homo sapiens, UniProt P01116+P62937, G12C); settings: with Cyclophilin A
How it was run: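 His6-K-Ras G12C-GMPPNP (12.5 nM), GST-BRAF RBD (50 nM) and tagless Cyclophilin A (25 μM) incubated 3 h at 25 °C with compound (10-point 3-fold series from 30 μM), pH 7.3 HEPES buffer. Anti-His Eu/anti-GST APC added for 1.5 h; decreased TR-FRET ratio vs DMSO gives IC50.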

NRAS Q61K = NRAS Q61K (Homo sapiens, UniProt P01111+P62937, Q61K)
Sequence of NRAS Q61K (P01111 whole entry Q61K): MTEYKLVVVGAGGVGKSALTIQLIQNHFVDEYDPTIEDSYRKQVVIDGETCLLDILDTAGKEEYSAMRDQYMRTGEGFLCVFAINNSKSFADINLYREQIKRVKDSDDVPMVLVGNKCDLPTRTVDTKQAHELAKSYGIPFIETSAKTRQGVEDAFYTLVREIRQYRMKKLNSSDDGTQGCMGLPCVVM
Sequence of NRAS Q61K (P62937 whole entry): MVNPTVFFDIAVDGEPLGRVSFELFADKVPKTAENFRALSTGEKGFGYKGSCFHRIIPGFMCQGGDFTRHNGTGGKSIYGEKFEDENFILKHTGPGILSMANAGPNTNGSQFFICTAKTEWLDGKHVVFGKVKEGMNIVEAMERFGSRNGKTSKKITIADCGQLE
How it was run: (§1)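 TR-FRET in 25 mM HEPES pH 7.3, 100 mM NaCl, 5 mM MgCl2, 0.1% BSA, 0.002% Tween20 with 25 μM Cyclophilin A, 12.5 nM His6-Ras-GMPPNP, 50 nM GST-BRAF RBD; compound 10-point 3-fold series from 30 μM. After 3 h at 25 °C, Eu anti-His/APC anti-GST added for 1.5 h; IC50 from ratio decrease versus DMSO.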

KRAS Q61H = KRAS Q61H (Homo sapiens, UniProt P01116+P62937, Q61H)
Sequence of KRAS Q61H (P01116 1-169 isoform P01116-2 Q61H limits assumed): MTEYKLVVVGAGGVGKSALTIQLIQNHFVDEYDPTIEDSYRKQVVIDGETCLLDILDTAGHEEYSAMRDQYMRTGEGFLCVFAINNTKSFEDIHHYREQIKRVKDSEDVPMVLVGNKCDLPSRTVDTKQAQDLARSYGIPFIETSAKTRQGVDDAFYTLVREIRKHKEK
Sequence of KRAS Q61H (P62937 whole entry): as the sequence (P62937 whole entry) above
How it was run: as §1

KRAS G12D = KRAS G12D (Homo sapiens, UniProt P01116+P62937, G12D); settings: with Cyclophilin A
Sequence of KRAS G12D (P01116 1-169 isoform P01116-2 G12D limits assumed): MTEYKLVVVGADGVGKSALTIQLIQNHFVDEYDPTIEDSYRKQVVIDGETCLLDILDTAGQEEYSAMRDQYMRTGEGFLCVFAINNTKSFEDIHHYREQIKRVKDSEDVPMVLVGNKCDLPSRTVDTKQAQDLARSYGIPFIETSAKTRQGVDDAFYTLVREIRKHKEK
Sequence of KRAS G12D (P62937 whole entry): as the sequence (P62937 whole entry) above
How it was run: as §1

NRAS WT = NRAS WT (Homo sapiens, UniProt P01111+P62937)
Sequence of NRAS WT (P01111 whole entry): as the sequence (P01111 whole entry Q61K) above, with K61Q counted along it
Sequence of NRAS WT (P62937 whole entry): as the sequence (P62937 whole entry) above
How it was run: as §1

KRAS WT = KRAS WT (Homo sapiens, UniProt P01116+P62937); settings: with Cyclophilin A
Sequence of KRAS WT (P01116 1-169 isoform P01116-2 limits assumed): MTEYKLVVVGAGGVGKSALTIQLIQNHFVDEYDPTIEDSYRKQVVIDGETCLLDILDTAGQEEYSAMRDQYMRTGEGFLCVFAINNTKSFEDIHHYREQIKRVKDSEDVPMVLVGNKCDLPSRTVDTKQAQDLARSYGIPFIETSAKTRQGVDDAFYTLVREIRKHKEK
Sequence of KRAS WT (P62937 whole entry): as the sequence (P62937 whole entry) above
How it was run: as §1

NRAS G12C = NRAS G12C (Homo sapiens, UniProt P01111+P62937, G12C)
Sequence of NRAS G12C (P01111 whole entry G12C): as the sequence (P01111 whole entry Q61K) above, with G12C, K61Q counted along it
Sequence of NRAS G12C (P62937 whole entry): as the sequence (P62937 whole entry) above
How it was run: as §1

KRAS G12S = KRAS G12S (Homo sapiens, UniProt P01116+P62937, G12S); settings: with Cyclophilin A
Sequence of KRAS G12S (P01116 1-169 isoform P01116-2 G12S limits assumed): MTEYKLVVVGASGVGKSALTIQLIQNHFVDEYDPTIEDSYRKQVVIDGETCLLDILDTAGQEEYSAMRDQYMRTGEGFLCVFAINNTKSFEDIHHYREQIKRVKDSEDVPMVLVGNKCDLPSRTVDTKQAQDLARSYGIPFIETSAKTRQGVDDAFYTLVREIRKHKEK
Sequence of KRAS G12S (P62937 whole entry): as the sequence (P62937 whole entry) above
How it was run: as §1

NRAS Q61R = NRAS Q61R (Homo sapiens, UniProt P01111+P62937, Q61R)
Sequence of NRAS Q61R (P01111 whole entry Q61R): as the sequence (P01111 whole entry Q61K) above, with K61R counted along it
Sequence of NRAS Q61R (P62937 whole entry): as the sequence (P62937 whole entry) above
How it was run: as §1

KRAS G13C = KRAS G13C (Homo sapiens, UniProt P01116+P62937, G13C); settings: with Cyclophilin A
Sequence of KRAS G13C (P01116 1-169 isoform P01116-2 G13C limits assumed): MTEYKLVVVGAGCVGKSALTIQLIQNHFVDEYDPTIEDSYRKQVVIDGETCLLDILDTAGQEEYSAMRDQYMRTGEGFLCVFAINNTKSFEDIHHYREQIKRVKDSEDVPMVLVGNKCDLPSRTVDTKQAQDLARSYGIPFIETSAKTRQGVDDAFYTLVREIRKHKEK
Sequence of KRAS G13C (P62937 whole entry): as the sequence (P62937 whole entry) above
How it was run: as §1

KRAS G13D = KRAS G13D (Homo sapiens, UniProt P01116+P62937, G13D); settings: with Cyclophilin A
Sequence of KRAS G13D (P01116 1-169 isoform P01116-2 G13D limits assumed): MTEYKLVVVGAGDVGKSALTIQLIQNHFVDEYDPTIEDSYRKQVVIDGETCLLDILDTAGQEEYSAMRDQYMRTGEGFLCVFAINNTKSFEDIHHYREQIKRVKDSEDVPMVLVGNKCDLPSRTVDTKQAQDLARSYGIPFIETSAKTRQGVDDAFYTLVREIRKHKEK
Sequence of KRAS G13D (P62937 whole entry): as the sequence (P62937 whole entry) above
How it was run: as §1

KRAS G12V = KRAS G12V (Homo sapiens, UniProt P01116+P62937, G12V); settings: with Cyclophilin A
Sequence of KRAS G12V (P01116 1-169 isoform P01116-2 G12V limits assumed): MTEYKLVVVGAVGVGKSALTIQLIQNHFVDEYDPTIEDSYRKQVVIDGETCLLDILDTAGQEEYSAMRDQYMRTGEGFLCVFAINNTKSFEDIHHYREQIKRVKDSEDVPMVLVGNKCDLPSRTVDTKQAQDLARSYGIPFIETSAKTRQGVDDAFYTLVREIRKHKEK
Sequence of KRAS G12V (P62937 whole entry): as the sequence (P62937 whole entry) above
How it was run: as §1

[1] = Ras-Raf disruption, read-out: KRAS G12C FRET data IC50
[2] = NRAS Q61K, read-out: NRAS Q61K FRET data IC50
[3] = KRAS Q61H, read-out: KRAS Q61H FRET data IC50
[4] = Ras-Raf disruption, read-out: KRAS G12D FRET data IC50
[5] = NRAS WT, read-out: NRAS WT FRET data IC50
[6] = Ras-Raf disruption, read-out: KRAS WT FRET data IC50
[7] = NRAS G12C, read-out: NRAS G12C FRET data IC50
[8] = Ras-Raf disruption, read-out: KRAS G12S FRET data IC50
[9] = NRAS Q61R, read-out: NRAS Q61R FRET data IC50
[10] = Ras-Raf disruption, read-out: KRAS G13C FRET data IC50
[11] = Ras-Raf disruption, read-out: KRAS G13D FRET data IC50
[12] = Ras-Raf disruption, read-out: KRAS G12V FRET data IC50
[13] = KRAS G12C FRET data IC50, Ras-Raf disruption
[14] = KRAS G12D FRET data IC50, Ras-Raf disruption
[15] = KRAS WT FRET data IC50, Ras-Raf disruption
[16] = NRAS G12C FRET data IC50, NRAS G12C
[17] = KRAS G12S FRET data IC50, Ras-Raf disruption
[18] = KRAS G13C FRET data IC50, Ras-Raf disruption
[19] = KRAS G13D FRET data IC50, Ras-Raf disruption
[20] = KRAS G12V FRET data IC50, Ras-Raf disruption

Sequence of KRAS G12C (P01116 1-169 isoform P01116-2 G12C limits assumed): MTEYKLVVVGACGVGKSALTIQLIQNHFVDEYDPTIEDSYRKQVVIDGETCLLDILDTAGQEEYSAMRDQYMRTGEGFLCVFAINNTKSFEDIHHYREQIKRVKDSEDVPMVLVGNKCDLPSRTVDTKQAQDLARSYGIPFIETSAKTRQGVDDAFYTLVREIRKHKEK
Sequence of KRAS G12C (P62937 whole entry): as the sequence (P62937 whole entry) above

CCn1c(-c2cccnc2[C@H](C)OC)c2c3cc(ccc31)-c1cc(O)cc(c1)C[C@H](NC(=O)[C@H](C(C)C)N(C)C(=O)C1CN(S(=O)(=O)[C@H]3CN3C)C1)C(=O)N1CCC[C@H](N1)C(=O)OCC(C)(C)C2 (single isomer, unassigned) [Example 117]
IC50 (KRAS G12C; [1]): 10 to 100 nM | IC50 (NRAS Q61K; [2]): 100 to 1000 nM | IC50 (KRAS Q61H; [3]): 10 to 100 nM | IC50 (KRAS G12D; [4]): 1000 to 10000 nM | IC50 (NRAS WT; [5]): 10 to 100 nM | IC50 (KRAS WT; [6]): 100 to 1000 nM | IC50 (NRAS G12C; [7]): 100 to 1000 nM | IC50 (KRAS G12S; [8]): 100 to 1000 nM | IC50 (NRAS Q61R; [9]): 100 to 1000 nM | IC50 (KRAS G13C; [10]): 10 to 100 nM | IC50 (KRAS G13D; [11]): 100 to 1000 nM | IC50 (KRAS G12V; [12]): 100 to 1000 nM

CCn1c(-c2cccnc2[C@H](C)OC)c2c3cc(ccc31)-c1cc(O)cc(c1)C[C@H](NC(=O)[C@H](C(C)C)N(C)C(=O)C1CCN(S(=O)(=O)[C@@H]3CN3C)CC1)C(=O)N1CCC[C@H](N1)C(=O)OCC(C)(C)C2 (single isomer, unassigned) [Example 119]
IC50 (KRAS G12C; [1]): 10 to 100 nM | IC50 (NRAS Q61K; [2]): 100 to 1000 nM | IC50 (KRAS Q61H; [3]): 10 to 100 nM | IC50 (KRAS G12D; [4]): 1000 to 10000 nM | IC50 (NRAS WT; [5]): 100 to 1000 nM | IC50 (KRAS WT; [6]): 100 to 1000 nM | IC50 (NRAS G12C; [7]): 100 to 1000 nM | IC50 (KRAS G12S; [8]): 100 to 1000 nM | IC50 (NRAS Q61R; [9]): 1000 to 10000 nM | IC50 (KRAS G13C; [10]): 10 to 100 nM | IC50 (KRAS G13D; [11]): 100 to 1000 nM | IC50 (KRAS G12V; [12]): 100 to 1000 nM

CCn1c(-c2cccnc2[C@H](C)OC)c2c3cc(ccc31)-c1cc(O)cc(c1)C[C@H](NC(=O)[C@H](C1CCCC1)N(C)C(=O)CN(C)C(=O)[C@@H]1N[C@@H]1C1(C#N)CC1)C(=O)N1CCC[C@H](N1)C(=O)OCC(C)(C)C2 (single isomer, unassigned) [Example 308]
IC50 (KRAS G12C; [13]): 10 to 100 nM | IC50 (NRAS Q61K): 100 to 1000 nM | IC50 (KRAS Q61H): 10 to 100 nM | IC50 (KRAS G12D; [14]): 100 to 1000 nM | IC50 (NRAS WT): 10 to 100 nM | IC50 (KRAS WT; [15]): 10 to 100 nM | IC50 (NRAS G12C; [16]): 10 to 100 nM | IC50 (KRAS G12S; [17]): 10 to 100 nM | IC50 (NRAS Q61R): 100 to 1000 nM | IC50 (KRAS G13C; [18]): 10 to 100 nM | IC50 (KRAS G13D; [19]): 100 to 1000 nM | IC50 (KRAS G12V; [20]): 100 to 1000 nM

CCn1c(-c2cccnc2[C@H](C)OC)c2c3cc(ccc31)-c1cc(O)cc(c1)C[C@H](NC(=O)[C@H](C1CCCC1)N(C)C(=O)CN(C)C(=O)[C@H]1N[C@H]1C1(OC)CC1)C(=O)N1CCC[C@H](N1)C(=O)OCC(C)(C)C2 (single isomer, unassigned) [Example 322]
IC50 (KRAS G12C; [13]): 10 to 100 nM | IC50 (NRAS Q61K): 100 to 1000 nM | IC50 (KRAS Q61H): 10 to 100 nM | IC50 (KRAS G12D; [14]): 100 to 1000 nM | IC50 (NRAS WT): 10 to 100 nM | IC50 (KRAS WT; [15]): 10 to 100 nM | IC50 (NRAS G12C; [16]): 10 to 100 nM | IC50 (KRAS G12S; [17]): 10 to 100 nM | IC50 (NRAS Q61R): 100 to 1000 nM | IC50 (KRAS G13C; [18]): 10 to 100 nM | IC50 (KRAS G13D; [19]): 100 to 1000 nM | IC50 (KRAS G12V; [20]): 10 to 100 nM

CCn1c(-c2cccnc2[C@H](C)OC)c2c3cc(ccc31)-c1cc(O)cc(c1)C[C@H](NC(=O)[C@H](C1CCCC1)N(C)C(=O)CN(C)C(=O)[C@@H]1N[C@@H]1C1(OC)CC1)C(=O)N1CCC[C@H](N1)C(=O)OCC(C)(C)C2 (single isomer, unassigned) [Example 323]
IC50 (KRAS G12C; [13]): 10 to 100 nM | IC50 (NRAS Q61K): 100 to 1000 nM | IC50 (KRAS Q61H): 10 to 100 nM | IC50 (KRAS G12D; [14]): 100 to 1000 nM | IC50 (NRAS WT): 10 to 100 nM | IC50 (KRAS WT; [15]): 10 to 100 nM | IC50 (NRAS G12C; [16]): 10 to 100 nM | IC50 (KRAS G12S; [17]): 10 to 100 nM | IC50 (NRAS Q61R): 100 to 1000 nM | IC50 (KRAS G13C; [18]): 10 to 100 nM | IC50 (KRAS G13D; [19]): 100 to 1000 nM | IC50 (KRAS G12V; [20]): 10 to 100 nM

CCn1c(-c2cccnc2[C@H](C)OC)c2c3cc(ccc31)-c1cc(O)cc(c1)C[C@H](NC(=O)[C@H](C(C)C)N(C)C(=O)C13CC(CN1C(=O)[C@@H]1CN1)C3)C(=O)N1CCC[C@H](N1)C(=O)OCC(C)(C)C2 [Example 163]
IC50 (KRAS G12C; [13]): 100 to 1000 nM | IC50 (NRAS Q61K): 100 to 1000 nM | IC50 (KRAS Q61H): 10 to 100 nM | IC50 (KRAS G12D; [14]): 100 to 1000 nM | IC50 (NRAS WT): 100 to 1000 nM | IC50 (KRAS WT; [15]): 100 to 1000 nM | IC50 (NRAS G12C; [16]): 100 to 1000 nM | IC50 (KRAS G12S; [17]): 100 to 1000 nM | IC50 (NRAS Q61R): 100 to 1000 nM | IC50 (KRAS G13C; [18]): 100 to 1000 nM | IC50 (KRAS G13D; [19]): 100 to 1000 nM | IC50 (KRAS G12V; [20]): 100 to 1000 nM
